For experiment [1], the system named is Indomethacin-induced ulcer. Briefly: Indomethacin-induced ulcer in rats. It counts as in vivo, male Donryu strain rats. The conditions noted are these: for Ulcer index: Indomethacin (25 mg/kg s.c.)-induced ulcer, 300 mg/kg P.O. ten minutes before pylorus ligation, total length of lesions. On the procedure: Indomethacin-induced ulcer: Groups of ten male Donryu strain rats each weighing 200 to 215 g were deprived of food for 24 hours. Then, the pylorus was ligated under ether anethesia, after which indomethacin was administered subcutaneously in an amount of 25 mg/kg to each rat. Seven hours after the administration, each of the animals was sacrificed under ether anethesia to remove its stomach, followed by immersion in a 1% formalin solution for ten minutes. The stomach which had been semi-fixed was incised along its greater curvature, and the length (mm) of each lesion formed in the mucous membrane was measured under a dissecting microscope (10×). The total length (mm) of all the lesions of each rat was indicated as an ulcer index. Test medicine samples were given orally ten minutes before the pylorus legation.

A further experiment relates to Shay's ulcer. In words: Shay's ulcer (pylorus ligation) in rats. It counts as in vivo, male Donryu strain rats. The conditions noted are these: for Ulcer index: total ulcerated area in forestomach. The method, then: Shay's ulcer: Groups of ten male Donryu strain rats each weighing 210 to 230 g were deprived of food for 48 hours. The pylorus of each rat was ligated according to the method of Shay et al [Gastroenterology, 5, 43-61 (1945)]. Each of the animals was allowed to stand abstained from food and water for further 14 hours and then sacrificed to remove its stomach. After collection of the gastric juice, the ulcerated area (mm^2) in the forestomach of each rat was measured under a dissecting microscope (10×). The total area (mm^2) of all the lesions of each rat was indicated as an ulcer index. Test medicine samples were given orally immediately after the pylorus ligation.

Where [2] appears, read: Indomethacin-induced ulcer, 300 mg/kg P.O.
Where [3] appears, read: rats, 1,000 mg/kg P.O. immediately after pylorus ligation.

“And” between values parts separate entries of the source, which are not always exact repeats. Identical values can stand only once.

What is called % Inhibition is how much of the control response was suppressed. A higher % Inhibition goes with a response far below the control. For N-acetyl-DL-carnosine aluminum salt, the Ulcer index came out at 6.7 ± 3.0 mm in experiment [1] and 0.7 ± 0.8 mm^2 in the experiment with Shay's ulcer (setting [3]). The “% Inhibition” value was 60.1% in experiment [1] (setting [2]) and 75.9% in the experiment on Shay's ulcer (rats, 1,000 mg/kg P.O.).
In the same order, the values of N-acetyl-L-carnosine aluminum salt [B] are 6.5 ± 2.5 mm, 0.8 ± 0.6 mm^2, 61.3% and 72.4%.
The term inhibition denotes how much of the control response was suppressed. Low values mean little suppression, high ones strong suppression. In turn, `CC(=O)N[C@@H](CCC(N)=O)C(=O)O.[Al]` [N-Acetyl-L-glutamine aluminum, N-acetyl-L-glutamine aluminum] showed an inhibition at 2000 mg/kg in the experiment with Shay's ulcer (Rattus norvegicus, po, rats, 2,000 mg/kg P.O.) of 69%. The “% Inhibition” value with Shay's ulcer (rats, 2,000 mg/kg P.O.) is listed as 67.7%. Moreover, in the experiment on Shay's ulcer (rats, 2,000 mg/kg P.O. immediately after pylorus ligation), the Ulcer index was 0.9 ± 0.7 mm^2 and 1.0 ± 0.6 mm^2.
In turn, `NCCC(=O)N[C@@H](Cc1cnc[nH]1)C(=O)O` [L-Carnosine, L-carnosine] yielded a Ulcer index in experiment [1] of 17.1 ± 3.1 mm. Also, the “% Inhibition” value in experiment [1] (setting [2]) is listed as ~ 0%.
With N-propionyl-L-carnosine aluminum salt, in the experiment on Shay's ulcer (rats, 1,000 mg/kg P.O.), the “% Inhibition” value is 74.2%. The Ulcer index with Shay's ulcer (setting [3]) is reported as 0.8 ± 0.8 mm^2.
On to aluminum sucrose sulfate, for which the Ulcer index was 7.4 ± 2.8 mm in experiment [1]; 0.8 ± 0.6 mm^2 and 0.9 ± 0.5 mm^2 in the experiment on Shay's ulcer (setting [3]). Moreover, the “% Inhibition” value is 56.0% in experiment [1] (setting [2]); 72.4% and 71.0% in the experiment on Shay's ulcer (rats, 1,000 mg/kg P.O.).
Take `NC(=O)CC[C@H](N)C(=O)O` [L-Glutamine, L-glutamine]: the Ulcer index in experiment [1] was determined as 9.7 ± 3.9 mm. In experiment [1] (Rattus norvegicus, po, Indomethacin-induced ulcer, 300 mg/kg P.O.), this molecule gave an inhibition at 300 mg/kg of 42.3%.
